Laboratory results reported in patent US10676471B2, “Cycloalkyl-linked diheterocycle derivatives” (Pfizer Inc., priority 2014, dated 2020).

test system: BT20 Cell; assay: Cancer Cell Lysate Total L-Glutamate Assay; assay type: cell-based; conditions: Homo sapiens, BT-20, 2 h, total L-glutamate in cell lysate, BT20 cells, 2 hour incubation with test compound
How it was run: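 BT20 and other cancer lines at ~80% confluence were given fresh L-glutamine-containing medium, then treated with serially diluted compound (0.5% DMSO) for 2 hours at 37° C. Washed cells were lysed by freeze-thaw and sonication. Lysate glutamate was measured via glutamate oxidase/HRP/50 μM Amplex Red fluorescence (ex 530-560, em 585 nm); IC50 by four-parameter logistic fit.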

| IC50 [nM] | SMILES |
| --- | --- |
| 94.4 | CC(=O)Nc1nnc(CC2CCC(c3nnc(NC(=O)Cc4ccccc4)s3)C2)s1 (racemic) [Example 43, (rac)-N-{5-[(cis)-3-{[5-(acetylamino)-1,3,4-thiadiazol-2-yl]methyl}cyclopentyl]-1,3,4-thiadiazol-2-yl}-2-phenylacetamide] |
| 1.6 | O=C(Cc1ccccn1)Nc1nnc(C2CC3(C2)CC(c2nnc(NC(=O)Cc4ccccn4)s2)C3)s1 (racemic) [Example 61, N,N′-(spiro[3.3]heptane-2,6-diyldi-1,3,4-thiadiazole-5,2-diyl)bis[2-(pyridin-2-yl)acetamide]] |
| 71.2 | Nc1nnc(CC2CC[C@H](c3nnc(NC(=O)Cc4ccccc4)s3)C2)s1 (single isomer, unassigned) [Example 64, N-(5-{(cis)-3-[(5-amino-1,3,4-thiadiazol-2-yl)methyl]cyclopentyl}-1,3,4-thiadiazol-2-yl)-2-phenylacetamide] |
| 1.4 | O=C(Cc1ccccn1)Nc1ccc(C[C@@H]2CC[C@H](c3nnc(NC(=O)c4ccccn4)s3)C2)nn1 (single isomer, unassigned) [Example 117, N-{5-[(cis)-3-({6-[(pyridin-2-ylacetyl)amino]pyridazin-3-yl}methyl)cyclopentyl]-1,3,4-thiadiazol-2-yl}pyridine-2-carboxamide] |
| 0.8 | C[C@@H](c1nnc(NC(=O)Cc2ccccn2)s1)[C@H]1C[C@@H](c2nnc(NC(=O)Cc3ccccn3)s2)C1 (single isomer, unassigned) [Example 103] |
| 201 | C[C@H](C(=O)Nc1nnc(C[C@H]2CC[C@@H](c3nnc(NC(=O)[C@@H](C)c4cccnc4)s3)C2)s1)c1cccnc1 (single isomer, unassigned) [Example 32, 2-(pyridin-3-yl)-N-(5-{[(cis)-3-(5-{[2-(pyridin-3-yl)propanoyl]amino}-1,3,4-thiadiazol-2-yl)cyclopentyl]methyl}-1,3,4-thiadiazol-2-yl)propanamide] |
| 110 | CC(=O)Nc1nnc(C[C@H]2C[C@H](c3nnc(NC(C)=O)s3)C2)s1 (single isomer, unassigned) [Example 63, N-[5-({trans-3-[5-(acetylamino)-1,3,4-thiadiazol-2-yl]cyclobutyl}methyl)-1,3,4-thiadiazol-2-yl]acetamide] |
| 1 | O=C(Cc1ccccn1)Nc1ccc(C2CC3(C2)CC(c2ccc(NC(=O)Cc4ccccn4)nn2)C3)nn1 (racemic) [Example 25, N,N′-(spiro[3.3]heptane-2,6-diyldipyridazine-6,3-diyl)bis[2-(pyridin-2-yl)acetamide]] |
| 0.3 | O=C(Cc1ccccn1)Nc1nnc([C@H]2CC3(C[C@H](c4nnc(NC(=O)Cc5ccccn5)s4)C3)C2)s1 (single isomer, unassigned) [Example 99, N,N′-(spiro[3.3]heptane-2,6-diyldi-1,3,4-thiadiazole-5,2-diyl)bis[2-(pyridin-2-yl)acetamide]] |
| 942 | C[C@H](C(=O)Nc1nnc(C[C@H]2CC[C@@H](c3nnc(NC(=O)[C@H](C)c4cccnc4)s3)C2)s1)c1cccnc1 (single isomer, unassigned) [Example 34, 2-(pyridin-3-yl)-N-(5-{[(cis)-3-(5-{[2-(pyridin-3-yl)propanoyl]amino}-1,3,4-thiadiazol-2-yl)cyclopentyl]methyl}-1,3,4-thiadiazol-2-yl)propanamide] |
| 7.1 | CC(=O)Nc1ccc(C[C@H]2CC[C@@H](c3nnc(NC(=O)Cc4ccccn4)s3)C2)nn1 (single isomer, unassigned) [Example 68, N-{5-[(cis)-3-{[6-(acetylamino)pyridazin-3-yl]methyl}cyclopentyl]-1,3,4-thiadiazol-2-yl}-2-(pyridin-2-yl)acetamide] |
| 1.4 | CC(C)C(=O)Nc1nnc([C@H]2CC3(C[C@H](c4nnc(NC(=O)C(C)C)s4)C3)C2)s1 (stereo partly drawn) [Example 95, N,N′-(spiro[3.3]heptane-2,6-diyldi-1,3,4-thiadiazole-5,2-diyl)bis(2-methylpropanamide)] |
| 0.3 | Cc1ccc(CC(=O)Nc2nnc(C[C@H]3C[C@@H](c4nnc(NC(=O)Cc5ccc(C)cn5)s4)C3)s2)nc1 (single isomer, unassigned) [Example 108, 2-(5-methylpyridin-2-yl)-N-(5-{[cis-3-(5-{[(5-methylpyridin-2-yl)acetyl]amino}-1,3,4-thiadiazol-2-yl)cyclobutyl]methyl}-1,3,4-thiadiazol-2-yl)acetamide] |
| 989 | CC(=O)Nc1nnc(CC2CCC(c3nnc(NC(=O)c4ccccc4)s3)C2)s1 (racemic) [Example 48, (rac)-N-{5-[(cis)-3-{[5-(acetylamino)-1,3,4-thiadiazol-2-yl]methyl}cyclopentyl]-1,3,4-thiadiazol-2-yl}benzamide] |
| 789 | CC(=O)Nc1nnc(C2CCC(Cc3nnc(NC(=O)Cc4cncnc4)s3)C2)s1 (racemic) [Example 49, (rac)-N-[(cis)-5-({3-[5-(acetylamino)-1,3,4-thiadiazol-2-yl]cyclopentyl}methyl)-1,3,4-thiadiazol-2-yl]-2-(pyrimidin-5-yl)acetamide] |
| 21.6 | O=C(Cc1ccccn1)Nc1nnc(C[C@H]2CC[C@@H](c3nnc(NC(=O)Cc4ccccn4)s3)C2)s1 (single isomer, unassigned) [Example 4] |
| 1.5 | Cn1cnc(C(=O)Nc2nnc(C[C@H]3CC[C@@H](c4nnc(NC(=O)Cc5ccccn5)s4)C3)s2)c1 (racemic) [Example 150, (rac)-1-methyl-N-(5-{[(cis)-3-{5-[(pyridin-2-ylacetyl)amino]-1,3,4-thiadiazol-2-yl}cyclopentyl]methyl}-1,3,4-thiadiazol-2-yl)-1H-imidazole-4-carboxamide] |

The next lines start with the compound.

| SMILES | IC50 [nM] |
| --- | --- |
| CC(C)C(=O)Nc1nnc(C2CC3(CC(c4nnc(NC(=O)Cc5ccn(C)n5)s4)C3)C2)s1 (racemic) [Example 136, 2-methyl-N-{5-[6-(5-{[(1-methyl-1H-pyrazol-3-yl)acetyl]amino}-1,3,4-thiadiazol-2-yl)spiro[3.3]hept-2-yl]-1,3,4-thiadiazol-2-yl}propanamide] | 1.9 |
| O=C(Cc1ccccn1)Nc1nnc(C2CCCC(c3nnc(NC(=O)Cc4ccccn4)s3)C2)s1 (racemic) [Example 139, N,N′-[cyclohexane-1,3-diyldi-1,3,4-thiadiazole-5,2-diyl]bis[2-(pyridin-2-yl)acetamide]] | 196 |
| O=C(Cc1ccccn1)Nc1ccc([C@H]2C[C@@H](Cc3nnc(NC(=O)Cc4ccccn4)s3)C2)nn1 (single isomer, unassigned) [Example 124, 2-(pyridin-2-yl)-N-{5-[(cis-3-{6-[(pyridin-2-ylacetyl)amino]pyridazin-3-yl}cyclobutyl)methyl]-1,3,4-thiadiazol-2-yl}acetamide] | 4.7 |
| CC(=O)Nc1nnc(C[C@@H]2CC[C@H](c3nnc(NC(=O)Cc4ccccc4)s3)C2)s1 (single isomer, unassigned) [Example 44, N-{5-[(cis)-3-{[5-(acetylamino)-1,3,4-thiadiazol-2-yl]methyl}cyclopentyl]-1,3,4-thiadiazol-2-yl}-2-phenylacetamide] | 5.5 |
| CCC(=O)Nc1ccc(C[C@@H]2CC[C@H](c3nnc(NC(=O)CCOC)s3)C2)nn1 (single isomer, unassigned) [Example 90, 3-methoxy-N-{5-[(cis)-3-{[6-(propanoylamino)pyridazin-3-yl]methyl}cyclopentyl]-1,3,4-thiadiazol-2-yl}propanamide] | 1.3 |
| O=C(Cc1ccccn1)Nc1ccc(C[C@@H]2CC[C@H](c3nnc(NC(=O)C[C@H]4CCCO4)s3)C2)nn1 (single isomer, unassigned) [Example 130] | 1.8 |
| O=C(Cc1ccccc1)Nc1nnc(CC2CCC(c3nnc(NC(=O)Cc4ccccc4)s3)C2)s1 (racemic) [Example 9, (rac)-2-phenyl-N-(5-{[(cis)-3-{5-[(phenylacetyl)amino]-1,3,4-thiadiazol-2-yl}cyclopentyl]methyl}-1,3,4-thiadiazol-2-yl)acetamide] | 17 |
| Cn1ccc(CC(=O)Nc2nnc(C3CC4(C3)CC(c3nnc(NC(=O)Cc5ccn(C)n5)s3)C4)s2)n1 (racemic) [Example 96, (rac)-N,N-(spiro[3.3]heptane-2,6-diyldi-1,3,4-thiadiazole-5,2-diyl)bis[2-(1-methyl-1H-pyrazol-3-yl)acetamide]] | 0.3 |
| Nc1nnc(C[C@H]2CC[C@@H](c3nnc(N)s3)C2)s1 (single isomer, unassigned) [Example 41] | > 40400 |
| Cc1ccc(CC(=O)Nc2nnc(C[C@H]3C[C@H](c4nnc(NC(=O)Cc5ccc(C)cn5)s4)C3)s2)nc1 (single isomer, unassigned) [Example 109, 2-(5-methylpyridin-2-yl)-N-(5-{[trans-3-(5-{[(5-methylpyridin-2-yl)acetyl]amino}-1,3,4-thiadiazol-2-yl)cyclobutyl]methyl}-1,3,4-thiadiazol-2-yl)acetamide] | 1.3 |
| CC(=O)Nc1nnc(C2CCC(Cc3nnc(NC(=O)Cc4cnccn4)s3)C2)s1 (racemic) [Example 47, (rac)-N-[5-({(cis)-3-[5-(acetylamino)-1,3,4-thiadiazol-2-yl]cyclopentyl}methyl)-1,3,4-thiadiazol-2-yl]-2-(pyrazin-2-yl)acetamide] | 512 |
| O=C(Cc1ccccn1)Nc1ccc(C[C@@H]2CC[C@H](c3nnc(NC(=O)Cc4ccccn4)s3)C2)nn1 (single isomer, unassigned) [Example 72, 2-(pyridin-2-yl)-N-{5-[(cis)-3-({6-[(pyridin-2-ylacetyl)amino]pyridazin-3-yl}methyl)cyclopentyl]-1,3,4-thiadiazol-2-yl}acetamide] | 0.9 |

same assay, conditions: total L-glutamate in cell lysate, BT20 cells, 2 hour incubation with test compound

| SMILES | IC50 [nM] |
| --- | --- |
| Cn1ccc(CC(=O)Nc2nnc([C@H]3CC4(C[C@H](c5nnc(NC(=O)Cc6ccn(C)n6)s5)C4)C3)s2)n1 (stereo partly drawn) [Example 97, N,N′-(spiro[3.3]heptane-2,6-diyldi-1,3,4-thiadiazole-5,2-diyl)bis[2-(1-methyl-1H-pyrazol-3-yl)acetamide]] | 2.7 |
